In patent US11136583B2, “Methods and materials for treating cancer” (Mayo Foundation for Medical Education and Research, priority 2017, dated 2021):

Legend:
UFL1 = assay: Ufmylation level in U2OS cells by western blot with UFM1 antibody; type: cell-based
Protocol: FIG. 10. U2OS cells were treated with AZD6244 or GDC0623. 48 hours later, cell were harvested, lysed, and analyzed by western blot with the indicated antibodies.
(§1) U2OS cells were plated in 6 well plates, and MEK1 inhibitors (AZD6244 or GDC0623) were added to wells with 10 μM final concentration and incubated for 48 hours. AZD6244 was purchased from Selleckchem. In some cases, cells were also irradiated with IR (10 Gy IR for 30 minutes).
(§2) Cells were washed once with PBS and lysed with SDS lysis buffer. The samples were separated by SDS-PAGE following three washes with NETN buffer. Western blots were carried out following standard procedures.
To identify an inhibitor of UFL1 activity that induced a significant decrease of ufmylation, cells were treated with inhibitors and were analyzed by western blot using UFM1 antibody to detect the ufmylation level in the cells.

[1] = test system: Protein kinase ataxia-telangiectasia mutated (ATM) signaling; assay: ATM signaling in irradiated U2OS cells by western blot; type: cell-based; conditions: U2OS cells pretreated 6 hours, then 10 Gy IR, harvested 30 minutes after IR (FIG. 11)
Protocol: FIG. 11. U2OS cells were pretreated with AZD6244. 6 hours later, cells were treated with 10 Gy IR. 30 minutes after ionizing radiation, cells were harvested, lysed, and analyzed by western blot with the indicated antibodies.
as §1, §2

Cn1cnc2c(F)c(Nc3ccc(Br)cc3Cl)c(C(=O)NOCCO)cc21 [AZD6244, selumetinib]
UFL1 inhibition (conclusion from ufmylation and ATM signaling western blots) (UFL1): inhibits UFL1 | ufmylation level in the cells (UFL1; 10 μM, 48 hours, western blot with UFM1 antibody (FIG. 10)): greatly suppressed | ATM signaling [1]: greatly suppressed
